SMILES strings stand for the structures.

These results are taken from patent US20250041429A1, “COMPOUND HAVING BTK PROTEIN DEGRADATION ACTIVITY, AND MEDICAL USES THEREOF” (UBIX THERAPEUTICS, INC., priority 2021, published 2025).

The target of the test is T1, BTK protein (Homo sapiens, UniProt Q06187).
T1 construct: endogenous in cells; host or cells: TMD-8 cells
Put plainly: Measurement of BTK protein degradation ability in TMD-8 cells (Western blotting). Format: cell-based. The following applies: harvested after 24 hours; for BTK degradation (%) 1 nM: compound 1 nM; for BTK degradation (%) 10 nM: compound 10 nM; for BTK degradation (%) 100 nM: compound 100 nM. The method in brief:
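BTK levels were measured by immunoblotting of equal-protein RIPA lysates, normalized to GAPDH or β-actin, with chemiluminescent or infrared detection. Lysates came from TMD-8 cells exposed to compound for 24 h at final concentrations of 0.1, 1, 10 μM or 0.0001–0.1 μM, against a DMSO control.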

T1 sequence (Q06187 whole entry): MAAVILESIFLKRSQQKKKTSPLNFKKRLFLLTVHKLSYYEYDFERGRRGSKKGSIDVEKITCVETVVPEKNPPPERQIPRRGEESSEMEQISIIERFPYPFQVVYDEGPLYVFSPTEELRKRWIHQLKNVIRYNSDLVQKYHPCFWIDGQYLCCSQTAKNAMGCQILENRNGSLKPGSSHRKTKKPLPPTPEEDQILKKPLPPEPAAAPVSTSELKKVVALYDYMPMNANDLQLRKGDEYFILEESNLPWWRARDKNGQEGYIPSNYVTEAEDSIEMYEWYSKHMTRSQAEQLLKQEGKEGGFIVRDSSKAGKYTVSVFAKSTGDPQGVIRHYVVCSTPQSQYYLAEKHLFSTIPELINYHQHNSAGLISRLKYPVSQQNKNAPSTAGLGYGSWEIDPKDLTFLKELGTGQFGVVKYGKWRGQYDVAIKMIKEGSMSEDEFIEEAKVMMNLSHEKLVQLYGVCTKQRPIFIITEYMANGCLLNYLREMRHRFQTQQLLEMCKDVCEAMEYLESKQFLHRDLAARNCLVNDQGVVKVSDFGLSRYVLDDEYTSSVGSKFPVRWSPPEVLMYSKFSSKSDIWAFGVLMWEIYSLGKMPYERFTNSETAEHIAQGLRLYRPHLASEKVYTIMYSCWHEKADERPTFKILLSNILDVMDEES

As for `Cc1cc(-c2ccnc(Nc3ccc(N4CCN(CC5CN(c6ccc7c(c6)C(=O)N(C6CCC(=O)NC6=O)C7=O)C5)CC4)cc3)n2)ccc1CNC(=O)c1cnn(C(C)C)c1` (stereo not drawn) [Example 34, N-(4-(2-((4-(4-((1-(2-(2,6-dioxopiperidin-3-yl)-1,3-dioxoisoindolin-5-yl)azetidin-3-yl)methyl)piperazin-1-yl)phenyl)amino)pyrimidin-4-yl)-2-methylbenzyl)-1-isopropyl-1H-pyrazole-4-carboxamide], the “BTK degradation (%) 1 nM” value was 41%, the “BTK degradation (%) 10 nM” value was determined as 90% and the “BTK degradation (%) 100 nM” value is 99.5%.

In the case of `Cc1cc(-c2ccnc(Nc3cnn(C4CCN(CC5CCN(c6ccc7c(c6)C(=O)N(C6CCC(=O)NC6=O)C7=O)CC5)CC4)c3)n2)ccc1CNC(=O)c1cnn(C(C)C)c1` (stereo not drawn) [Example 35, N-(4-(2-((1-(1-((1-(2-(2,6-dioxopiperidin-3-yl)-1,3-dioxoisoindolin-5-yl)piperidin-4-yl)methyl)piperidin-4-yl)-1H-pyrazol-4-yl)amino)pyrimidin-4-yl)-2-methylbenzyl)-1-isopropyl-1H-pyrazole-4-carboxamide], the “BTK degradation (%) 1 nM” value is reported as 50.5%, the “BTK degradation (%) 10 nM” value is 93.5% and the “BTK degradation (%) 100 nM” value came to 99.5%.

For `Cc1cc(-c2ccnc(Nc3cnn(C4CCN(CC5CN(c6ccc7c(c6)C(=O)N(C6CCC(=O)NC6=O)C7=O)C5)CC4)c3)n2)ccc1CNC(=O)c1cnn(C(C)C)c1` (stereo not drawn) [Example 36, N-(4-(2-((1-(1-((1-(2-(2,6-dioxopiperidin-3-yl)-1,3-dioxoisoindolin-5-yl)azetidin-3-yl)methyl)piperidin-4-yl)-1H-pyrazol-4-yl)amino)pyrimidin-4-yl)-2-methylbenzyl)-1-isopropyl-1H-pyrazole-4-carboxamide], the “BTK degradation (%) 1 nM” value worked out at 60%, the “BTK degradation (%) 10 nM” value stood at 94% and the “BTK degradation (%) 100 nM” value was determined as 99%.

`Cc1cc(-c2ccnc(Nc3cnn(C4CCN(CC5CCN(c6ccc7c(c6)C(=O)N(C6CCC(=O)NC6=O)C7=O)CC5)CC4)c3)n2)ccc1CNC(=O)c1cnn(C(C)(C)C)c1` (stereo not drawn) [Example 37, 1-(tert-butyl)-N-(4-(2-((1-(1-((1-(2-(2,6-dioxopiperidin-3-yl)-1,3-dioxoisoindolin-5-yl)piperidin-4-yl)methyl)piperidin-4-yl)-1H-pyrazol-4-yl)amino)pyrimidin-4-yl)-2-methylbenzyl)-1H-pyrazole-4-carboxamide]: the “BTK degradation (%) 1 nM” value stood at 54.5%, the “BTK degradation (%) 10 nM” value stood at 92.5% and the “BTK degradation (%) 100 nM” value came out at 99%.

Regarding `Cc1cc(-c2ccnc(Nc3cnn(C4CCN(CC5CN(c6ccc7c(c6)C(=O)N(C6CCC(=O)NC6=O)C7=O)C5)CC4)c3)n2)ccc1CNC(=O)c1cnn(C(C)(C)C)c1` (stereo not drawn) [Example 38, 1-(tert-butyl)-N-(4-(2-((1-(1-((1-(2-(2,6-dioxopiperidin-3-yl)-1,3-dioxoisoindolin-5-yl)azetidin-3-yl)methyl)piperidin-4-yl)-1H-pyrazol-4-yl)amino)pyrimidin-4-yl)-2-methylbenzyl)-1H-pyrazole-4-carboxamide], the “BTK degradation (%) 1 nM” value is 72.5%, the “BTK degradation (%) 10 nM” value is reported as 96% and the “BTK degradation (%) 100 nM” value was determined as 98.5%.

As for `Cc1cc(-c2ccnc(Nc3cnn(C4CCN(CC5CCN(c6ccc7c(c6)C(=O)N(C6CCC(=O)NC6=O)C7=O)CC5)CC4)c3)n2)ccc1CNC(=O)c1cn(C(C)(C)C)nn1` (stereo not drawn) [Example 39, 1-(tert-butyl)-N-(4-(2-((1-(1-((1-(2-(2,6-dioxopiperidin-3-yl)-1,3-dioxoisoindolin-5-yl)piperidin-4-yl)methyl)piperidin-4-yl)-1H-pyrazol-4-yl)amino)pyrimidin-4-yl)-2-methylbenzyl)-1H-1,2,3-triazole-4-carboxamide], the “BTK degradation (%) 1 nM” value came out at 65.5%, the “BTK degradation (%) 10 nM” value worked out at 93.5% and the “BTK degradation (%) 100 nM” value was 98.5%.

Take `Cc1cc(-c2ccnc(Nc3cnn(C4CCN(CC5CN(c6ccc7c(c6)C(=O)N(C6CCC(=O)NC6=O)C7=O)C5)CC4)c3)n2)ccc1CNC(=O)c1cn(C(C)(C)C)nn1` (stereo not drawn) [Example 40, 1-(tert-butyl)-N-(4-(2-((1-(1-((1-(2-(2,6-dioxopiperidin-3-yl)-1,3-dioxoisoindolin-5-yl)azetidin-3-yl)methyl)piperidin-4-yl)-1H-pyrazol-4-yl)amino)pyrimidin-4-yl)-2-methylbenzyl)-1H-1,2,3-triazole-4-carboxamide]: the “BTK degradation (%) 1 nM” value was found to be 69.5%, the “BTK degradation (%) 10 nM” value was 95.5% and the “BTK degradation (%) 100 nM” value came to 98%.

Consider `Cc1cc(-c2ccnc(Nc3ccc(C4CN(CC5CCN(c6ccc7c(c6)C(=O)N(C6CCC(=O)NC6=O)C7=O)CC5)C4)cc3)n2)ccc1CNC(=O)N1CC(OC(C)C)C1` (stereo not drawn) [Example 41, N-(4-(2-((4-(1-((1-(2-(2,6-dioxopiperidin-3-yl)-1,3-dioxoisoindolin-5-yl)piperidin-4-yl)methyl)azetidin-3-yl)phenyl)amino)pyrimidin-4-yl)-2-methylbenzyl)-3-isopropoxyazetidine-1-carboxamide], for which the “BTK degradation (%) 1 nM” value is 81.5%, the “BTK degradation (%) 10 nM” value is 100.0% and the “BTK degradation (%) 100 nM” value was found to be 100.0%.

In the case of `Cc1cc(-c2ccnc(Nc3ccc(N4CCN(CC5CCN(c6cccc(OC7CCC(=O)NC7=O)c6)CC5)CC4)cc3)n2)ccc1CNC(=O)N1CC(OC(C)C)C1` (stereo not drawn) [Example 42, N-(4-(2-((4-(4-((1-(3-((2,6-dioxopiperidin-3-yl)oxy)phenyl)piperidin-4-yl)methyl)piperazin-1-yl)phenyl)amino)pyrimidin-4-yl)-2-methylbenzyl)-3-isopropoxyazetidine-1-carboxamide], the “BTK degradation (%) 1 nM” value was determined as 60.5%, the “BTK degradation (%) 10 nM” value was found to be 97.5% and the “BTK degradation (%) 100 nM” value came to 100.0%.

As to `Cc1cc(-c2ccnc(Nc3ccc(N4CCN(CC5CCN(c6ccc(OC7CCC(=O)NC7=O)cc6)CC5)CC4)cc3)n2)ccc1CNC(=O)N1CC(OC(C)C)C1` (stereo not drawn) [Example 43, N-(4-(2-((4-(4-((1-(4-((2,6-dioxopiperidin-3-yl)oxy)phenyl)piperidin-4-yl)methyl)piperazin-1-yl)phenyl)amino)pyrimidin-4-yl)-2-methylbenzyl)-3-isopropoxyazetidine-1-carboxamide], the “BTK degradation (%) 1 nM” value amounted to 83.0%, the “BTK degradation (%) 10 nM” value is 100.0% and the “BTK degradation (%) 100 nM” value is listed as 100.0%.

For `Cc1cc(-c2ccnc(Nc3ccc(C4CCN(CC5CN(c6ccc7c(c6)C(=O)N(C6CCC(=O)NC6=O)C7=O)C5)CC4)cc3)n2)ccc1CNC(=O)c1cnn(C(C)C)c1` (stereo not drawn) [Example 44, N-(4-(2-((4-(1-((1-(2-(2,6-dioxopiperidin-3-yl)-1,3-dioxoisoindolin-5-yl)azetidin-3-yl)methyl)piperidin-4-yl)phenyl)amino)pyrimidin-4-yl)-2-methylbenzyl)-1-isopropyl-1H-pyrazole-4-carboxamide], the “BTK degradation (%) 1 nM” value was 66.0%, the “BTK degradation (%) 10 nM” value was 95.0% and the “BTK degradation (%) 100 nM” value was found to be 99.0%.

As for `Cc1cc(-c2ccnc(Nc3ccc(C4CCN(CC5CN(c6ccc7c(c6)C(=O)N(C6CCC(=O)NC6=O)C7=O)C5)CC4)cc3)n2)ccc1CNC(=O)c1cnn(C(C)(C)C)c1` (stereo not drawn) [Example 45, 1-(tert-butyl)-N-(4-(2-((4-(1-((1-(2-(2,6-dioxopiperidin-3-yl)-1,3-dioxoisoindolin-5-yl)azetidin-3-yl)methyl)piperidin-4-yl)phenyl)amino)pyrimidin-4-yl)-2-methylbenzyl)-1H-pyrazole-4-carboxamide], the “BTK degradation (%) 1 nM” value is 45.5%, the “BTK degradation (%) 10 nM” value turned out to be 89.5% and the “BTK degradation (%) 100 nM” value is 98.0%.

Consider `Cc1cc(-c2ccnc(Nc3ccc(C4CCN(CC5CN(c6ccc7c(c6)C(=O)N(C6CCC(=O)NC6=O)C7=O)C5)CC4)cc3)n2)ccc1CNC(=O)c1cn(C(C)(C)C)nn1` (stereo not drawn) [Example 46, 1-(tert-butyl)-N-(4-(2-((4-(1-((1-(2-(2,6-dioxopiperidin-3-yl)-1,3-dioxoisoindolin-5-yl)azetidin-3-yl)methyl)piperidin-4-yl)phenyl)amino)pyrimidin-4-yl)-2-methylbenzyl)-1H-1,2,3-triazole-4-carboxamide], for which the “BTK degradation (%) 1 nM” value is 46.5%, the “BTK degradation (%) 10 nM” value was determined as 91.0% and the “BTK degradation (%) 100 nM” value was 98.0%.

Take `Cc1cc(-c2ccnc(Nc3ccc(C4CCN(CC5CCN(c6ccc(OC7CCC(=O)NC7=O)cc6)CC5)CC4)cc3)n2)ccc1CNC(=O)N1CC(OC(C)C)C1` (stereo not drawn) [Example 47, N-(4-(2-((4-(1-((1-(4-((2,6-dioxopiperidin-3-yl)oxy)phenyl)piperidin-4-yl)methyl)piperidin-4-yl)phenyl)amino)pyrimidin-4-yl)-2-methylbenzyl)-3-isopropoxyazetidine-1-carboxamide]: the “BTK degradation (%) 1 nM” value came to 22.5%, the “BTK degradation (%) 10 nM” value was determined as 93.5% and the “BTK degradation (%) 100 nM” value worked out at 99.5%.

`Cc1cc(-c2ccnc(Nc3ccc(N4CCN(CC5CCN(c6ccc(OC7CCC(=O)NC7=O)cc6)CC5)CC4)cc3)n2)ccc1CNC(=O)c1cnn(C(C)C)c1` (stereo not drawn) [Example 48, N-(4-(2-((4-(4-((1-(4-((2,6-dioxopiperidin-3-yl)oxy)phenyl)piperidin-4-yl)methyl)piperazin-1-yl)phenyl)amino)pyrimidin-4-yl)-2-methylbenzyl)-1-isopropyl-1H-pyrazole-4-carboxamide]: the “BTK degradation (%) 1 nM” value is given as 53.5%, the “BTK degradation (%) 10 nM” value worked out at 94.5% and the “BTK degradation (%) 100 nM” value is 99.0%.
